Assay results from US20080009418A1, “Selective Inhibitors” (Alchemia LTD., priority 2004, published 2008).

Columns and labels:
[1] = biological target: T1, Human Melanocortin (MC3) (Homo sapiens, UniProt P41968); experiment: Radioligand binding, human melanocortin MC3 membranes, FlashPlate, [125I]-NDP-αMSH; conditions: compound at 10 μM; for A3 radioligand binding inhibition: human melanocortin MC3 membranes
T1 construct: purchased Perkin Elmer Biosignal
Summary of the method: (§1)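 Cloned human receptor membranes were coated onto FlashPlate wells and incubated with radioligand and compound (added from a 0.5 mM DMSO daughter plate) for 1 hour at room temperature in the dark. Scintillation counting gave percent inhibition, with DMSO defining total and reference ligand defining non-specific binding.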

[2] = biological target: T2, Human opioid (ORL1) (Homo sapiens, UniProt P41146); experiment: Radioligand binding, human opioid ORL1 membranes, FlashPlate, [125I]-Nociceptin; conditions: compound at 10 μM
T2 construct: purchased Perkin Elmer Biosignal
Summary of the method: as §1

[3] = biological target: T3, Human melanin-concentrating hormone (MCH1) (Homo sapiens, UniProt Q99705); experiment: Radioligand binding, human melanin-concentrating hormone MCH1 membranes, FlashPlate, [125I]-S36057; conditions: compound at 10 μM; for A6 radioligand binding inhibition: human MCH1 membranes; for A6: inhibition of radioligand binding, human melanin-concentrating hormone (MCH1): [125I]-S36057
T3 construct: purchased Perkin Elmer Biosignal
Summary of the method: as §1

[4] = biological target: T4, Human melanocortin (MC5) (Homo sapiens, UniProt P33032); experiment: Radioligand binding, human melanocortin MC5 membranes, FlashPlate, [125I]-NDP-αMSH; conditions: compound at 10 μM; for A5 radioligand binding inhibition: human melanocortin MC5 membranes
T4 construct: purchased Perkin Elmer Biosignal
Summary of the method: as §1

[5] = biological target: T5, Human Melanocortin (MC4) (Homo sapiens, UniProt P32245); experiment: Radioligand binding, human melanocortin MC4 membranes, FlashPlate, [125I]-NDP-αMSH; conditions: compound at 10 μM; for A4 radioligand binding inhibition: human melanocortin MC4 membranes
T5 construct: purchased Perkin Elmer Biosignal
Summary of the method: as §1

[6] = biological target: T6, Human κ-Opioid (KOP) (Homo sapiens, UniProt P41145); experiment: Radioligand binding, human κ-opioid (KOP) membranes, filtration, [3H]-Diprenorphine; conditions: compound at 10 μM; for A2 radioligand binding inhibition: human κ-opioid (KOP) membranes
T6 construct: purchased Perkin Elmer Biosignal
Summary of the method: (§2)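 Filtration binding on cloned human receptor membranes (1 Unit/well), [125I]-Substance P for NK1 and [3H]-Diprenorphine for KOP, 1 h at room temperature. Filters PEI-presoaked, washed with cold 50 mM Tris-HCl pH 7.4, counted by scintillation; percent inhibition calculated, reference ligand defining non-specific binding.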

[7] = biological target: T7, Human neurokinin (NK1) (Homo sapiens, UniProt P25103); experiment: Radioligand binding, human neurokinin NK1 membranes, filtration, [125I]-Substance P; conditions: compound at 10 μM; for A8 radioligand binding inhibition: human neurokinin NK1 membranes
T7 construct: purchased Perkin Elmer Biosignal
Summary of the method: as §2

[8] = biological target: T8, Human neuropeptide Y (NPY-Y1) (Homo sapiens, UniProt P25929); experiment: Radioligand binding, human neuropeptide Y NPY-Y1 membranes, FlashPlate, [125I]-PYY; conditions: compound at 10 μM
T8 construct: purchased Perkin Elmer Biosignal
T8 sequence (P25929 1-384): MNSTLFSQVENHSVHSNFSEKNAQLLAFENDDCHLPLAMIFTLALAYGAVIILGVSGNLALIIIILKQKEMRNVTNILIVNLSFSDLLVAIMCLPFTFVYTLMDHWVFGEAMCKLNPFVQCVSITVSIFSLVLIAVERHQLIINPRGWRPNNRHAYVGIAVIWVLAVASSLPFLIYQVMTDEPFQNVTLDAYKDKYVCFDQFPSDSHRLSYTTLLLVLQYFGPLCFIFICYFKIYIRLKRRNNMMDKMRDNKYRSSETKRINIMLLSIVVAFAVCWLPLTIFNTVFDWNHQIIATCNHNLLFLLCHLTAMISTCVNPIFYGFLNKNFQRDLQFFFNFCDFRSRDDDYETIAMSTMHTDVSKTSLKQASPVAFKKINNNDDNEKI
Summary of the method: as §1

[9] = biological target: T9, Mouse urotensin (mUR2) (Mus musculus, UniProt Q8VIH9); experiment: Radioligand binding, mouse urotensin mUR2 membranes, FlashPlate, [125I]-Urotensin II; conditions: compound at 10 μM; for A11 radioligand binding inhibition: mouse urotensin mUR2 membranes
T9 construct: purchased Perkin Elmer Biosignal
T9 sequence (Q8VIH9 1-385): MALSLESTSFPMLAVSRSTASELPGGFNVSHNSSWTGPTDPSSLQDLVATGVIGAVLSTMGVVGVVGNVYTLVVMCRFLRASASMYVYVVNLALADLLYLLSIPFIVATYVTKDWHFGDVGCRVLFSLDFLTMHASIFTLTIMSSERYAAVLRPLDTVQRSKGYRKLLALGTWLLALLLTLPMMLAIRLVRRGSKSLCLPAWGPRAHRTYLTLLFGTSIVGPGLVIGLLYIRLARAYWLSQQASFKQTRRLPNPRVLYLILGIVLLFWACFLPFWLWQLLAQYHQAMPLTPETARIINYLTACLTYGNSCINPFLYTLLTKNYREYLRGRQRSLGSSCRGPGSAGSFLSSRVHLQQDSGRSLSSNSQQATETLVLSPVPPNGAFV
Summary of the method: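 Cloned mouse urotensin (mUR2) receptor membranes from Perkin Elmer Biosignal were immobilized in FlashPlate microplates using a proprietary coating. Each well got 19.5 μl buffer, then 0.5 μl of DMSO, reference ligand, or compound. Adding 5 μl of [125I]-Urotensin II, diluted to 5× final concentration in binding buffer, started binding. Plates were sealed with TopSeal-A and incubated 1 hour at room temperature in the dark. Wells were counted for 30 seconds each on a TopCount after a 60-second delay, and percentage inhibition was calculated.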

[10] = biological target: T10, Human δ-opioid (DOP) (Homo sapiens, UniProt P41143); experiment: Radioligand binding, human δ-opioid (DOP) membranes, FlashPlate, [3H]-Bremazocine; conditions: compound at 10 μM; for A1 radioligand binding inhibition: human δ-opioid (DOP) membranes
T10 construct: purchased Perkin Elmer Biosignal
Summary of the method: as §1

[11] = biological target: T11, Human μ-opioid (MOP) (Homo sapiens, UniProt P35372); experiment: Radioligand binding, human μ-opioid (MOP) membranes, FlashPlate, [3H]-Naloxone; conditions: compound at 10 μM; for A7 radioligand binding inhibition: human μ-opioid (MOP) membranes
T11 construct: purchased Perkin Elmer Biosignal
Summary of the method: as §1

T6 sequence (P41145 whole entry): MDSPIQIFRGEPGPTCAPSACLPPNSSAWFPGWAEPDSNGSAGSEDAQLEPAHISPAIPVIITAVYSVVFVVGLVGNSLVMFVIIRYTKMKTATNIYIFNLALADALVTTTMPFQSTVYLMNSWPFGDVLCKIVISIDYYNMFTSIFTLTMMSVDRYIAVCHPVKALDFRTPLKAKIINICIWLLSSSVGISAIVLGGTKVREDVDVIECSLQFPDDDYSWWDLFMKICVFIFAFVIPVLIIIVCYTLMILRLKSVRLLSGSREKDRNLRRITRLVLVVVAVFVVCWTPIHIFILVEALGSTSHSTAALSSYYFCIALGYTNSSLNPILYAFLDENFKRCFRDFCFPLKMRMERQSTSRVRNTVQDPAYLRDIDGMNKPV
T7 sequence (P25103 whole entry): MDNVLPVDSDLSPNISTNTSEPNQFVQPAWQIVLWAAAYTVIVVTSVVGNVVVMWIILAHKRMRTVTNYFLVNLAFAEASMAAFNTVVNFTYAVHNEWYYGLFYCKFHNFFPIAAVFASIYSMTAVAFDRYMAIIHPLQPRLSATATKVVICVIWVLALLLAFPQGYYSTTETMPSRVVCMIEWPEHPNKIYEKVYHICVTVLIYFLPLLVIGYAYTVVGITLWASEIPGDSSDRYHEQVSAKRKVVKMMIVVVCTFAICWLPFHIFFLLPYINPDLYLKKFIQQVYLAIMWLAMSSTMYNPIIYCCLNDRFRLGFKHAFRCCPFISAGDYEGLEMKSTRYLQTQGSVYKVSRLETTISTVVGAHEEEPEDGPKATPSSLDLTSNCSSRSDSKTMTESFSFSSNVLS
T11 sequence (P35372 whole entry): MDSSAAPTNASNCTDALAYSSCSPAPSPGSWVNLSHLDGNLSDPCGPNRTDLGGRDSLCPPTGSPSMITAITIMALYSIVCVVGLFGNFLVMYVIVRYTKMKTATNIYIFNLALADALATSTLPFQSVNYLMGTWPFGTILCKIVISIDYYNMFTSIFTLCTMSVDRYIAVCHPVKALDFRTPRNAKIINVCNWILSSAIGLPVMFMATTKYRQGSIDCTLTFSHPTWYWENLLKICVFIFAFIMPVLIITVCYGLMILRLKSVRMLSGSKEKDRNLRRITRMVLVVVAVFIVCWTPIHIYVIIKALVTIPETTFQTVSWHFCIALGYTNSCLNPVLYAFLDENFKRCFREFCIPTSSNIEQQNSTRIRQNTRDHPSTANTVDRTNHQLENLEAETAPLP
T10 sequence (P41143 whole entry): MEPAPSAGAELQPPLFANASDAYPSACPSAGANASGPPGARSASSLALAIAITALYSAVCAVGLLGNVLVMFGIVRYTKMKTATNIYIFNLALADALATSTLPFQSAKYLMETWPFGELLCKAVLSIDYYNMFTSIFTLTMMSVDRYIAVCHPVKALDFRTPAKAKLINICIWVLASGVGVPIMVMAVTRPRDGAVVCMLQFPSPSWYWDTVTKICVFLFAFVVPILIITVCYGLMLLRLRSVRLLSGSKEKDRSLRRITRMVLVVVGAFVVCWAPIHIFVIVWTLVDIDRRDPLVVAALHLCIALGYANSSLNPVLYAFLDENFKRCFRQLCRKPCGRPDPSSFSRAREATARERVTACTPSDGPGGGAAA
T2 sequence (P41146 whole entry): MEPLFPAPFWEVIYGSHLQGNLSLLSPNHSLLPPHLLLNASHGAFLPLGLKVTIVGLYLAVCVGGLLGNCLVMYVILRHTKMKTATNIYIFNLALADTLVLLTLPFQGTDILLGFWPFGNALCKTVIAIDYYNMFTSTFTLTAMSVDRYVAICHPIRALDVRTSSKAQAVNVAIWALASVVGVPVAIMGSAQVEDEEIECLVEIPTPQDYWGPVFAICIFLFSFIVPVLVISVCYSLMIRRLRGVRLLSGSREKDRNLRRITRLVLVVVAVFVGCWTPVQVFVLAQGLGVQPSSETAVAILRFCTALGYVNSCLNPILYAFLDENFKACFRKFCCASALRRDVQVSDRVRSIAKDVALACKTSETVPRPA
T1 sequence (P41968 whole entry): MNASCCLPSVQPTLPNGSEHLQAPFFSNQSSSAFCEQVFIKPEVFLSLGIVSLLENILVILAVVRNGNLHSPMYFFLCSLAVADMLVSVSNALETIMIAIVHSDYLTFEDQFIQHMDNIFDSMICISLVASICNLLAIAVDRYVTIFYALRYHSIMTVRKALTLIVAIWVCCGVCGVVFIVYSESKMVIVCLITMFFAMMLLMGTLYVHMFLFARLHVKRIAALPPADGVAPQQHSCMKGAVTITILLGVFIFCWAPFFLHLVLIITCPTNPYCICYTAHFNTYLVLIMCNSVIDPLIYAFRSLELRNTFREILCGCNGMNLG
T4 sequence (P33032 whole entry): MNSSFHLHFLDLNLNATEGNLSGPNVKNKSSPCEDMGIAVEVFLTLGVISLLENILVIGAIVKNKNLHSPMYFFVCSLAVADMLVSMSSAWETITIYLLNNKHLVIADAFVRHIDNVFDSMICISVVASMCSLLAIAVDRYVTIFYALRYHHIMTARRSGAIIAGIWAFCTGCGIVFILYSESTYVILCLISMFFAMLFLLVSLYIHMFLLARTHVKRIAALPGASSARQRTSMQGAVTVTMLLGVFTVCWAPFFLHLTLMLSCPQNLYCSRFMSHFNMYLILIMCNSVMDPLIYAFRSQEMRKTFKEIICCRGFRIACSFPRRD
T3 sequence (Q99705 whole entry): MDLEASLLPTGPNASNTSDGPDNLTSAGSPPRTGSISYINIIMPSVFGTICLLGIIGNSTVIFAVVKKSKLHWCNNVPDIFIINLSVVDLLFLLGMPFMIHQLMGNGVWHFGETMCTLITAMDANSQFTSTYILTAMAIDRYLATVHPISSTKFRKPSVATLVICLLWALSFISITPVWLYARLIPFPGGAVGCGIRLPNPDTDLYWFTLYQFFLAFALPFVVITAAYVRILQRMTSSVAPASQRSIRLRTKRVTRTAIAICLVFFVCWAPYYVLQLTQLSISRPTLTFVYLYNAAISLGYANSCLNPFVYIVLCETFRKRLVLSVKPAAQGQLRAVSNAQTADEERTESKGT
T5 sequence (P32245 whole entry): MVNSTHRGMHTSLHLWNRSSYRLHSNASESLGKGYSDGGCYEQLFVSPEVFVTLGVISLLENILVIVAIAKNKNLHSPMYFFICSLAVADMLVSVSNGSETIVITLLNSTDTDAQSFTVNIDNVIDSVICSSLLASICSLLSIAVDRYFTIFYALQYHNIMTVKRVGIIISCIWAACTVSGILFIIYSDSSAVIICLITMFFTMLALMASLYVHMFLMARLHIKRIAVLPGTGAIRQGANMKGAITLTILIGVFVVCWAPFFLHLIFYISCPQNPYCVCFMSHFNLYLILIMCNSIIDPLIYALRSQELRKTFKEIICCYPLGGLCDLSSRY

SMILES	A3 radioligand binding inhibition [1]	A10 radioligand binding inhibition ([2]; human ORL1 membranes)	A6 radioligand binding inhibition [3]	A5 radioligand binding inhibition [4]	A4 radioligand binding inhibition [5]	A2 radioligand binding inhibition [6]	A8 radioligand binding inhibition [7]	A9 radioligand binding inhibition ([8]; human NPY-Y1 membranes)	A11 radioligand binding inhibition [9]	A1 radioligand binding inhibition [10]	A7 radioligand binding inhibition [11]	A3: inhibition of radioligand binding, human melanocortin (MC3) ([1]; [125I]-NDP-αMSH)	A10: inhibition of radioligand binding, human opioid (ORL1) ([2]; [125I]-Nociceptin)	A6: inhibition of radioligand binding, human melanin-concentrating hormone (MCH1) [3]	A5: inhibition of radioligand binding, human melanocortin (MC5) ([4]; [125I]-NDP-αMSH)	A4: inhibition of radioligand binding, human melanocortin (MC4) ([5]; [125I]-NDP-αMSH)	A2: inhibition of radioligand binding, human κ-opioid (KOP) ([6]; [3H]-Diprenorphine)	A8: inhibition of radioligand binding, human neurokinin (NK1) ([7]; [125I]-Substance P)	A9: inhibition of radioligand binding, human neuropeptide Y (NPY-Y1) ([8]; [125I]-PYY)	A11: inhibition of radioligand binding, mouse urotensin (mUR2) ([9]; [125I]-Urotensin II)	other results
COC[C@H]1OC(OCCc2ccccc2)[C@H](NC(=O)CCNC(=N)N)[C@@H](OCc2ccc(Cl)cc2)[C@@H]1O (stereo partly shown) [compound 49]	− (“−” indicates less than 50% inhibition at 10 μM)	− (“−” indicates less than 50% inhibition at 10 μM)	− (“−” indicates less than 50% inhibition at 10 μM)	− (“−” indicates less than 50% inhibition at 10 μM)	+ (“+” indicates greater than 50% inhibition at 10 μM)	− (“−” indicates less than 50% inhibition at 10 μM)	+ (“+” indicates greater than 50% inhibition at 10 μM)	− (“−” indicates less than 50% inhibition at 10 μM)	− (“−” indicates less than 50% inhibition at 10 μM)	− (“−” indicates less than 50% inhibition at 10 μM)	− (“−” indicates less than 50% inhibition at 10 μM)										
COC1C(O)C(COCc2ccc3ccccc3c2)OC(OCc2ccc(Cl)cc2)C1NC(=O)C1CCN(C(=N)N)CC1 (stereo not shown) [compound 349]												− (“−” indicates less than 50% inhibition at 10 μM)	− (“−” indicates less than 50% inhibition at 10 μM)	− (“−” indicates less than 50% inhibition at 10 μM)	+ (“+” indicates greater than 50% inhibition at 10 μM)	− (“−” indicates less than 50% inhibition at 10 μM)	− (“−” indicates less than 50% inhibition at 10 μM)	+ (“+” indicates greater than 50% inhibition at 10 μM)	− (“−” indicates less than 50% inhibition at 10 μM)	− (“−” indicates less than 50% inhibition at 10 μM)	A1: inhibition of radioligand binding, human δ-opioid (DOP) ([10]; [3H]-Bremazocine): − (“−” indicates less than 50% inhibition at 10 μM); A7: inhibition of radioligand binding, human μ-opioid (MOP) ([11]; [3H]-Naloxone): − (“−” indicates less than 50% inhibition at 10 μM)
COC[C@H]1OC(OCc2ccc(Cl)cc2)[C@H](NC(=O)CCCN)[C@@H](OCc2ccccc2)[C@@H]1O (stereo partly shown) [compound 35]	− (“−” indicates less than 50% inhibition at 10 μM)	− (“−” indicates less than 50% inhibition at 10 μM)	− (“−” indicates less than 50% inhibition at 10 μM)	− (“−” indicates less than 50% inhibition at 10 μM)	− (“−” indicates less than 50% inhibition at 10 μM)	− (“−” indicates less than 50% inhibition at 10 μM)	+ (“+” indicates greater than 50% inhibition at 10 μM)	− (“−” indicates less than 50% inhibition at 10 μM)	− (“−” indicates less than 50% inhibition at 10 μM)	− (“−” indicates less than 50% inhibition at 10 μM)	− (“−” indicates less than 50% inhibition at 10 μM)										
N=C(N)NCC(=O)N[C@H]1C(OCc2ccc(Cl)cc2)O[C@H](COCc2ccc3ccccc3c2)[C@@H](O)[C@@H]1OCc1ccc(-c2ccccc2)cc1 (stereo partly shown) [compound 517]												+ (“+” indicates greater than 50% inhibition at 10 μM)	− (“−” indicates less than 50% inhibition at 10 μM)	+ (“+” indicates greater than 50% inhibition at 10 μM)	+ (“+” indicates greater than 50% inhibition at 10 μM)	+ (“+” indicates greater than 50% inhibition at 10 μM)	+ (“+” indicates greater than 50% inhibition at 10 μM)	+ (“+” indicates greater than 50% inhibition at 10 μM)	− (“−” indicates less than 50% inhibition at 10 μM)	− (“−” indicates less than 50% inhibition at 10 μM)	A1: inhibition of radioligand binding, human δ-opioid (DOP) ([10]; [3H]-Bremazocine): − (“−” indicates less than 50% inhibition at 10 μM); A7: inhibition of radioligand binding, human μ-opioid (MOP) ([11]; [3H]-Naloxone): − (“−” indicates less than 50% inhibition at 10 μM)
N=C(N)NCC(=O)NC1C(OCc2ccc(Cl)cc2)OC(COCc2ccccc2)C(O)C1OCc1ccc(Cl)cc1 (stereo not shown) [compound 418]																					A3: inhibition of radioligand binding ([1]; [125I]-NDP-αMSH, human MC3 membranes): + (“+” indicates greater than 50% inhibition at 10 μM); A10: inhibition of radioligand binding ([2]; [125I]-Nociceptin, human ORL1 membranes): + (“+” indicates greater than 50% inhibition at 10 μM); A6: inhibition of radioligand binding ([3]; [125I]-S36057, human MCH1 membranes): + (“+” indicates greater than 50% inhibition at 10 μM); A5: inhibition of radioligand binding ([4]; [125I]-NDP-αMSH, human MC5 membranes): + (“+” indicates greater than 50% inhibition at 10 μM); A4: inhibition of radioligand binding ([5]; [125I]-NDP-αMSH, human MC4 membranes): + (“+” indicates greater than 50% inhibition at 10 μM); A2: inhibition of radioligand binding ([6]; [3H]-Diprenorphine, human KOP membranes): − (“−” indicates less than 50% inhibition at 10 μM); A8: inhibition of radioligand binding ([7]; [125I]-Substance P, human NK1 membranes): + (“+” indicates greater than 50% inhibition at 10 μM); A9: inhibition of radioligand binding ([8]; [125I]-PYY, human NPY-Y1 membranes): − (“−” indicates less than 50% inhibition at 10 μM); A11: inhibition of radioligand binding ([9]; [125I]-Urotensin II, mouse mUR2 membranes): − (“−” indicates less than 50% inhibition at 10 μM); A1: inhibition of radioligand binding ([10]; [3H]-Bremazocine, human DOP membranes): − (“−” indicates less than 50% inhibition at 10 μM); A7: inhibition of radioligand binding ([11]; [3H]-Naloxone, human MOP membranes): − (“−” indicates less than 50% inhibition at 10 μM)
